{
  "source": "patent US8940798B2",
  "about": "“Compounds useful for treating and/or preventing disease-associated bone loss” (Centre National de al Recherche Scientifique (CNRS), priority 2011, dated 2015)",
  "assay_type_in_all_cases": "cell-based",
  "key": {"GEF TrioN": {"molecular_target": "T1, GEF TrioN (Homo sapiens, UniProt O75962)", "T1 construct": "expressed in transfected cells; host or cells: 293T cells", "test": "Active (GTP-bound) Rac1 pull-down in 293T cells expressing GFP-fused TrioN", "details": "HEK293T cells, treated for 1 hour, 1% DMSO, western blot", "text": "FIGS. 5A-5H: Inhibition of bone resorption by an inhibitor of Rac1 activation by Dock5. (FIG. 5A) Principle of the yeast exchange assay used to identify inhibitors of Dock5 exchange activity. Wild type Rac1 is fused to LexA DNA binding domain (LexA) and its effector Kinectin (Kin) to GAL4 activation domain (GAD). Expression of Dock5-DHR2 activates Rac1, which binds to kinectin, leading to the expression of his3 and then yeast […] for histidine. Inhibitors of Dock5-DHR2 revert Rac1 activation. (FIG. 5B) Growth curves of yeasts expressing Rac1 and Kinectin with (open triangles) and without (dots) Dock5-DHR2, in medium complemented (plain lines) or not (dotted lines) with histidine. (FIG. 5C) Structure of N-(3,5-dichlorophenyl)benzensulfonamide (C21). […] (FIG. 5F) Number of OCs (OC) after a 24-hour incubation with the indicated concentrations of C21, expressed as a % of DMSO control (0 μM C21). […] To activate Rac1, OCs at day 4 of differentiation were starved overnight in the presence of 2% serum, stimulated with 100 ng/ml M-CSF or lifted and replated onto vitronectin-coated plates for 30 minutes prior to lysis, and active Rac1 levels were measured G-LISA kit according to manufacturer's instructions (Cytoskeleton)."}, "osteoclasts (OCs) [1]": {"system": "osteoclasts (OCs)", "test": "OC survival assay (number of OCs after 24-hour incubation)", "details": "number of OCs as % of DMSO control", "text": "FIGS. 5A-5H: Inhibition of bone resorption by an inhibitor of Rac1 activation by Dock5. (FIG. 5A) Principle of the yeast exchange assay used to identify inhibitors of Dock5 exchange activity. Wild type Rac1 is fused to LexA DNA binding domain (LexA) and its effector Kinectin (Kin) to GAL4 activation domain (GAD). Expression of Dock5-DHR2 activates Rac1, which binds to kinectin, leading to the expression of his3 and then yeast […] for histidine. Inhibitors of Dock5-DHR2 revert Rac1 activation. (FIG. 5B) Growth curves of yeasts expressing Rac1 and Kinectin with (open triangles) and without (dots) Dock5-DHR2, in medium complemented (plain lines) or not (dotted lines) with histidine. […] (FIG. 5F) Number of OCs (OC) after a 24-hour incubation with the indicated concentrations of C21, expressed as a % of DMSO control (0 μM C21). […]\nPreparations were mounted in Mowiol 40-88 (Sigma) and imaged with Zeiss Axioimager Z2 microscope with Coolsnap HQ2 camera for fluorescence and Coolsnap color Cf camera using Zeiss 40× PLAN-NEOFLUAR 1.3 oil DIC or Zeiss 20× PLAN-APOCHROMAT 0.8 or Zeiss 10× EC PLAN-NEOFLUAR 0.3. […] OC circularity was measured using ImageJ. OCs were counted manually in 96-well plates stained to reveal DNA and TRAP activity, except in FIG. 5F where they were counted automatically using a Cellomics Arrayscan VTI (Thermo Scientific). […]"}, "osteoclasts (OCs) [2]": {"system": "osteoclasts (OCs)", "test": "TRAP staining of OCs to ascertain absence of toxicity", "details": "25 μM C21 vs DMSO (not shown)", "text": "OCs were fixed and stained for DNA, actin or vinculin or TRAP as described (16,19).\nTo confirm the essential role of Rac1 activation by Dock5 in the resorption process, it was sought for a chemical inhibitor of Dock5 exchange activity active in cell cultures. The inventors therefore took advantage of a yeast-based assay that they have developed (BLANGY et al., Identification of TRIO-GEFD1 chemical inhibitors using the yeast exchange assay, 2006, Biol Cell 98(9):511-22 and BOUQUIER et al. A cell active chemical GEF inhibitor selectively targets the Trio/RhoG/Rac1 signaling pathway, 2009, Chem Biol 16(6):657-66.). They constructed a yeast strain where Rac1 activation by Dock5 DHR2 induces the expression of the his3 reporter gene (FIG. 5A), which leads to faster yeast growth in Histidine deprived medium (FIG. 5B). A library of 2,640 heterocyclic commercial chemical compounds as described previously was screened (BOUQUIER et al., see above) for molecules able to inhibit growth of Dock5 DHR2-expressing yeasts in Histidine deprived medium without affecting growth in Histidine complemented medium. C21: N-(3,5-dichlorophenyl)benzenesulfonamide was then identified (FIG. 5C). […] In parallel, control OCs grown in the presence of DMSO or 25 μM C21 were stained for TRAP to ascertain C21 was not toxic (not shown)."}},
  "data": [
    {"smiles": "O=S(=O)(Nc1cc(Cl)cc(Cl)c1)c1ccccc1", "note": "[C21, N-(3,5-dichlorophenyl)benzenesulfonamide]", "values": [
      {"measurement": "Rac1 activation by the GEF TrioN", "setting": "GEF TrioN", "result": "no effect"},
      {"measurement": "Concentrations provoking OC death", "setting": "osteoclasts (OCs) [1]", "result": "above 25 μM"},
      {"measurement": "Toxicity to OCs by TRAP staining", "setting": "osteoclasts (OCs) [2]", "result": "not toxic"}
    ]}
  ]
}
